Laboratory results reported in article PMC2248166, “Quantitative peptide binding motifs for 19 human and mouse MHC class I molecules derived using positional scanning combinatorial peptide libraries” (Immunome Research, 2008).
Where a SMILES comes first, the peptide text is derived from it.

Biological target: HLA B*1503 (Homo sapiens, UniProt P01889, A329T/A93T/A95T/C349S/D201E/D98Y/E187L/E204Q/K202T/N87E/Q94N/R155S/R180L/S121R/S35A/V306I/V36M/Y140S/Y91S)
Experiment: biochemical
Type: binding

Structure (SMILES)	IC50
CC(C)[C@H](NC(=O)[C@H](CCC(N)=O)NC(=O)[C@@H](N)CCCNC(=N)N)C(=O)N[C@H](C(=O)N[C@@H](CC(=O)O)C(=O)N[C@@H](Cc1ccccc1)C(=O)N[C@@H](Cc1ccccc1)C(=O)N[C@@H](CCCCN)C(=O)N[C@@H](Cc1ccccc1)C(=O)O)C(C)C [3102.1123] (H-RQVVDFFKF-OH)	0.34 nM
CC(C)[C@H](NC(=O)[C@H](Cc1ccc(O)cc1)NC(=O)[C@H](CCC(N)=O)NC(=O)[C@@H](N)Cc1ccccc1)C(=O)N[C@@H](CO)C(=O)N[C@@H](Cc1ccc(O)cc1)C(=O)N[C@@H](CO)C(=O)N[C@@H](CC(N)=O)C(=O)N[C@@H](Cc1ccccc1)C(=O)O [3102.1128] (H-FQYVSYSNF-OH)	0.26 nM
CC(C)C[C@H](NC(=O)[C@H](CO)NC(=O)[C@@H](NC(=O)[C@H](CCCNC(=N)N)NC(=O)[C@H](CO)NC(=O)[C@H](CC(C)C)NC(=O)[C@H](Cc1ccc(O)cc1)NC(=O)[C@H](CCC(N)=O)NC(=O)[C@@H](N)CO)C(C)C)C(=O)O [3102.1130] (H-SQYLSRVSL-OH)	0.24 nM
CC(C)C[C@H](NC(=O)[C@@H](NC(=O)[C@H](CC(N)=O)NC(=O)[C@@H]1CCCN1C(=O)[C@@H]1CCCN1C(=O)[C@H](CO)NC(=O)[C@@H](NC(=O)[C@H](CO)NC(=O)[C@@H](N)CO)C(C)C)C(C)C)C(=O)O [3102.1131] (H-SSVSPPNVL-OH)	18 nM
CC[C@H](C)[C@H](NC(=O)[C@H](CCC(N)=O)NC(=O)[C@H](CC(N)=O)NC(=O)[C@H](CC(=O)O)NC(=O)[C@H](CCCNC(=N)N)NC(=O)[C@H](C)NC(=O)[C@@H](N)Cc1ccccc1)C(=O)N[C@@H](CO)C(=O)N[C@@H](Cc1ccccc1)C(=O)O [3102.1132] (H-FARDNQISF-OH)	0.2 nM
CC(C)[C@H](NC(=O)[C@H](Cc1c[nH]cn1)NC(=O)[C@H](CCC(N)=O)NC(=O)CNC(=O)[C@H](Cc1ccccc1)NC(=O)[C@H](CS)NC(=O)[C@H](CC(N)=O)NC(=O)[C@H](C)NC(=O)[C@H](C)N)C(=O)O [3102.1133] (H-AANCFGQHV-OH)	22 nM
CC[C@H](C)[C@H](NC(=O)[C@@H]1CCCN1C(=O)CNC(=O)[C@H](Cc1ccccc1)NC(=O)[C@H](Cc1ccccc1)NC(=O)[C@@H](NC(=O)[C@H](CCCCN)NC(=O)[C@@H](N)CO)C(C)C)C(=O)N[C@@H](Cc1ccc(O)cc1)C(=O)O [3102.1134] (H-SKVFFGPIY-OH)	1 nM
CC(C)C[C@H](NC(=O)[C@H](Cc1ccccc1)NC(=O)[C@@H]1CCCN1C(=O)[C@H](CCCNC(=N)N)NC(=O)[C@@H](NC(=O)[C@H](CC(C)C)NC(=O)[C@@H](N)CCCNC(=N)N)C(C)C)C(=O)N[C@H](C(=O)N[C@H](C(=O)O)C(C)C)C(C)C [3102.1135] (H-RLVRPFLVV-OH)	16 nM
CC[C@H](C)[C@H](N)C(=O)N[C@@H](CCCCN)C(=O)N[C@@H](CO)C(=O)N[C@@H](Cc1ccc(O)cc1)C(=O)N[C@H](C(=O)N[C@H](C(=O)N[C@@H](CCCNC(=N)N)C(=O)N[C@H](C(=O)N[C@@H](Cc1ccccc1)C(=O)O)C(C)C)[C@@H](C)CC)[C@@H](C)O [3102.1137] (H-IKSYTIRVF-OH)	1.6 nM
CC[C@H](C)[C@H](NC(=O)[C@H](CCSC)NC(=O)[C@H](CC(C)C)NC(=O)[C@@H]1CCCN1C(=O)[C@H](CCCNC(=N)N)NC(=O)[C@H](Cc1ccccc1)NC(=O)[C@H](CCCCN)NC(=O)[C@@H](N)CCCCN)C(=O)N[C@@H](Cc1ccccc1)C(=O)O [3102.1138] (H-KKFRPLMIF-OH)	0.17 nM
CC(C)C[C@H](NC(=O)[C@H](Cc1ccccc1)NC(=O)[C@H](CCCNC(=N)N)NC(=O)[C@@H](N)CC(C)C)C(=O)N[C@@H](CCC(=O)O)C(=O)N[C@@H](CCCCN)C(=O)N[C@H](C(=O)N[C@@H](CO)C(=O)N[C@@H](Cc1ccccc1)C(=O)O)[C@@H](C)O [3102.1139] (H-LRFLEKTSF-OH)	2.2 nM
CC[C@H](C)[C@H](NC(=O)[C@@H](NC(=O)[C@H](CCSC)NC(=O)[C@@H](N)CO)C(C)C)C(=O)N[C@@H](CO)C(=O)N[C@@H](CC(C)C)C(=O)N[C@@H](CC(C)C)C(=O)N[C@@H](CO)C(=O)N[C@@H](CCSC)C(=O)O [3102.1140] (H-SMVISLLSM-OH)	8 nM
CC[C@H](C)[C@H](N)C(=O)N[C@@H](CC(C)C)C(=O)N[C@@H](Cc1c[nH]cn1)C(=O)N[C@@H](CO)C(=O)N[C@@H](CC(=O)O)C(=O)N[C@@H](Cc1ccc(O)cc1)C(=O)N[C@@H](CCC(N)=O)C(=O)N[C@@H](CC(C)C)C(=O)N[C@@H](Cc1ccccc1)C(=O)O [3102.1141] (H-ILHSDYQLF-OH)	2.4 nM
CSCC[C@H](NC(=O)[C@H](CCCCN)NC(=O)[C@@H](N)CCCCN)C(=O)N[C@@H](CCC(N)=O)C(=O)N[C@@H](CO)C(=O)N[C@@H](Cc1ccc(O)cc1)C(=O)N[C@@H](CC(N)=O)C(=O)N[C@@H](CO)C(=O)N[C@H](C(=O)O)C(C)C [3102.1143] (H-KKMQSYNSV-OH)	2.8 nM
CC[C@H](C)[C@H](NC(=O)[C@H](CO)NC(=O)[C@H](Cc1ccc(O)cc1)NC(=O)[C@@H](NC(=O)[C@H](C)NC(=O)[C@H](Cc1c[nH]cn1)NC(=O)[C@@H](N)CC(C)C)C(C)C)C(=O)N[C@H](C(=O)N[C@@H](Cc1ccccc1)C(=O)O)C(C)C [3102.1145] (H-LHAVYSIVF-OH)	8.8 nM
CC[C@H](C)[C@H](N)C(=O)N[C@@H](CCCCN)C(=O)N[C@@H](CCC(=O)O)C(=O)N[C@@H](CC(N)=O)C(=O)N[C@@H](CO)C(=O)N[C@H](C(=O)N[C@@H](Cc1ccc(O)cc1)C(=O)N[C@@H](CO)C(=O)N[C@@H](Cc1ccccc1)C(=O)O)[C@@H](C)CC [3102.1146] (H-IKENSIYSF-OH)	1.5 nM
CC[C@H](C)[C@H](NC(=O)[C@H](CO)NC(=O)[C@H](CO)NC(=O)[C@H](CO)NC(=O)[C@H](Cc1ccc(O)cc1)NC(=O)[C@H](C)NC(=O)[C@H](CC(C)C)NC(=O)[C@@H](N)C(C)C)C(=O)N[C@@H](Cc1ccccc1)C(=O)O [3102.1150] (H-VLAYSSSIF-OH)	5.4 nM
CC[C@H](C)[C@H](N)C(=O)N[C@@H](Cc1c[nH]cn1)C(=O)N[C@H](C(=O)N1CCC[C@H]1C(=O)N[C@@H](CCC(N)=O)C(=O)N[C@@H](CO)C(=O)N[C@@H](CCC(N)=O)C(=O)N[C@@H](CC(C)C)C(=O)N[C@@H](Cc1ccccc1)C(=O)O)[C@@H](C)CC [3102.1155] (H-IHIPQSQLF-OH)	5.5 nM
CC[C@H](C)[C@H](NC(=O)[C@H](CO)NC(=O)[C@@H](N)Cc1ccccc1)C(=O)N[C@@H](CC(C)C)C(=O)N[C@@H](Cc1ccccc1)C(=O)N[C@@H](CO)C(=O)N[C@@H](CC(N)=O)C(=O)N[C@@H](CC(N)=O)C(=O)N[C@@H](Cc1ccccc1)C(=O)O [3102.1156] (H-FSILFSNNF-OH)	30 nM
CC[C@H](C)[C@H](N)C(=O)N[C@@H](CCC(N)=O)C(=O)N[C@@H](Cc1ccccc1)C(=O)N[C@@H](CCSC)C(=O)N[C@@H](Cc1c[nH]cn1)C(=O)N[C@@H](CCC(=O)O)C(=O)N[C@@H](CCC(N)=O)C(=O)NCC(=O)N[C@@H](Cc1ccc(O)cc1)C(=O)O [3102.1159] (H-IQFMHEQGY-OH)	3.7 nM
CSCC[C@H](NC(=O)[C@@H](N)[C@@H](C)O)C(=O)N[C@H](C(=O)N[C@@H](CC(N)=O)C(=O)N[C@@H](CO)C(=O)N[C@@H](CC(C)C)C(=O)N[C@H](C(=O)N[C@@H](Cc1ccc(O)cc1)C(=O)N[C@@H](Cc1ccccc1)C(=O)O)[C@@H](C)O)C(C)C [3102.1160] (H-TMVNSLTYF-OH)	0.13 nM
CC(C)C[C@H](NC(=O)[C@@H](N)CCCCN)C(=O)N[C@H](C(=O)N[C@@H](CO)C(=O)N[C@H](C(=O)N[C@@H](CCC(=O)O)C(=O)N[C@H](C(=O)N[C@@H](CO)C(=O)N[C@@H](Cc1ccccc1)C(=O)O)[C@@H](C)O)[C@@H](C)O)[C@@H](C)O [3102.1165] (H-KLTSTETSF-OH)	25 nM
CC[C@H](C)[C@H](NC(=O)[C@@H](NC(=O)[C@H](C)NC(=O)[C@H](CS)NC(=O)[C@H](CCCNC(=N)N)NC(=O)[C@@H](NC(=O)[C@@H](N)Cc1ccccc1)[C@@H](C)O)C(C)C)C(=O)N1CCC[C@H]1C(=O)N[C@@H](Cc1ccccc1)C(=O)O [3102.1166] (H-FTRCAVIPF-OH)	5.4 nM
CC(C)C[C@H](NC(=O)[C@H](Cc1c[nH]c2ccccc12)NC(=O)[C@H](CCCCN)NC(=O)[C@H](C)NC(=O)[C@H](CCCCN)NC(=O)[C@@H](N)Cc1ccccc1)C(=O)N[C@H](C(=O)N1CCC[C@H]1C(=O)N[C@@H](Cc1ccccc1)C(=O)O)[C@@H](C)O [3102.1174] (H-FKAKWLTPF-OH)	0.073 nM
NCCCC[C@H](NC(=O)[C@H](CC(=O)O)NC(=O)[C@H](CC(N)=O)NC(=O)[C@H](CC(N)=O)NC(=O)[C@H](Cc1ccc(O)cc1)NC(=O)[C@H](CCCCN)NC(=O)[C@@H](N)CCCCN)C(=O)N[C@@H](CO)C(=O)N[C@@H](Cc1ccccc1)C(=O)O [3102.1179] (H-KKYNNDKSF-OH)	0.078 nM
CC[C@H](C)[C@H](N)C(=O)N[C@@H](CCC(N)=O)C(=O)N[C@@H](Cc1c[nH]cn1)C(=O)N[C@@H](CC(N)=O)C(=O)N[C@@H](Cc1ccccc1)C(=O)N[C@H](C(=O)N[C@@H](CCC(N)=O)C(=O)N[C@H](C(=O)N[C@@H](C)C(=O)O)[C@@H](C)CC)[C@@H](C)O [3102.1181] (H-IQHNFTQIA-OH)	0.25 nM
CSCC[C@H](NC(=O)[C@H](C)NC(=O)[C@H](CCCCN)NC(=O)[C@@H](N)Cc1ccccc1)C(=O)N[C@@H](Cc1c[nH]c2ccccc12)C(=O)N[C@@H](CCCCN)C(=O)N[C@@H](Cc1ccc(O)cc1)C(=O)N1CCC[C@H]1C(=O)N[C@@H](Cc1ccccc1)C(=O)O [3102.1182] (H-FKAMWKYPF-OH)	0.11 nM
CSCC[C@H](NC(=O)[C@@H](N)CCSC)C(=O)N[C@H](C(=O)N[C@@H](CO)C(=O)N[C@H](C(=O)N[C@@H](CCC(=O)O)C(=O)N[C@@H](CC(N)=O)C(=O)N[C@@H](CC(N)=O)C(=O)N[C@@H](CC(C)C)C(=O)O)[C@@H](C)O)C(C)C [3102.1183] (H-MMVSTENNL-OH)	11 nM
CSCC[C@H](NC(=O)[C@H](CO)NC(=O)[C@H](Cc1ccccc1)NC(=O)[C@H](CC(N)=O)NC(=O)[C@@H](NC(=O)[C@H](CCSC)NC(=O)[C@@H](N)Cc1ccccc1)[C@@H](C)O)C(=O)N[C@H](C(=O)N[C@@H](Cc1ccc(O)cc1)C(=O)O)C(C)C [3102.1186] (H-FMTNFSMVY-OH)	2.3 nM
